Tests used:
CB1R = molecular target: T1, CB1R (Homo sapiens, UniProt P21554, C107A/C139A/C149A/C238A/C355A/C382A/C386A/C415A/C431A/C449A/C98A/R336C); experiment: Bimane fluorescence of TM6-labeled minimal cysteine CB1R; assay type: biochemical; conditions: 10 μM ligand; apo 459 nm
T1 construct: N-terminal FLAG tag and C-terminal histidine tag was added to human full-length CB1; FLAG (N); histidine tag (C); made in house; host or cells: Spodoptera frugiperda Sf9 (baculovirus)
Experimental: A minimal cysteine version of CB1R was generated[73] where all the cysteine residues (except C256 and C264) were mutated to alanine. […] Excess label was removed using size exclusion chromatography on a Superdex 200 10/300 Increase column in 20 mM HEPES pH 7.5, 100 mM NaCl and 0.01% MNG/0.001% CHS. Bimane-labeled CB1R at […] was incubated with ligands (10 μM) for one hour at room temperature. Fluorescence data was collected at room temperature in a 150 μL cuvette with a FluorEssence v3.8 software on a Fluorolog instrument (Horiba) in photon-counting mode. Bimane fluorescence was measured by excitation at 370 nm with excitation and emission bandwidth passes of 4 nm. The emission spectra were recorded from 410 to 510 nm with 1 nm increment and 0.1 s integration time.

CB1 = molecular target: T2, CB1 (Rattus norvegicus, UniProt P20272); experiment: Radioligand competition binding with [3H]-CP-55,940, rat brain membranes; conditions: for Ki: rCB1 binding Ki [95% CI], [3H]-CP-55,940 competition, rat brain membranes; for Emax: maximal radioligand displacement, read-out: rCB1 binding Emax [SEM]
T2 construct: membrane preparations from rat brain (source of CB1); tissue Bioivt RAT00BRAINMZN; host or cells: rat brain
T2 sequence (P20272 whole entry): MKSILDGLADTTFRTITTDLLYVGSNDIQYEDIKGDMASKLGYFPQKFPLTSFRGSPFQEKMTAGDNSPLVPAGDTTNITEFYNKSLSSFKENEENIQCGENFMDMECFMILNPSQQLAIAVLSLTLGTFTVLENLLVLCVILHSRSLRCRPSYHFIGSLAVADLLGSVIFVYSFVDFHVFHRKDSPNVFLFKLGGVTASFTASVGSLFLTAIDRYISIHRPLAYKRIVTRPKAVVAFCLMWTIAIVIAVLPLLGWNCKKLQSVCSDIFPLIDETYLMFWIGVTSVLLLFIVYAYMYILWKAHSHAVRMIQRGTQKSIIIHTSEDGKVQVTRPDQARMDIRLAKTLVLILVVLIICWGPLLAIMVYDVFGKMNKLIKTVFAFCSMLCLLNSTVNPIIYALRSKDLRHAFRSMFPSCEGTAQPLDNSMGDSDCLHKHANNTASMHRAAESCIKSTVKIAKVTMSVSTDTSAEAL
Experimental: The results were analyzed using nonlinear regression to determine the IC50 and Ki values for each ligand (Prism by GraphPad Software, Inc., San Diego, CA). The Ki values are expressed as the mean of two to three experiments each performed in triplicate.

hCB1 [1] = molecular target: T3, hCB1 (Homo sapiens, UniProt P21554); experiment: Lance Ultra cAMP accumulation assay (inhibition of forskolin-stimulated cAMP), CHO cells; assay type: cell-based; parameters: expressed in transfected cells; conditions: hCB1-expressing cells
T3 sequence (P21554 whole entry): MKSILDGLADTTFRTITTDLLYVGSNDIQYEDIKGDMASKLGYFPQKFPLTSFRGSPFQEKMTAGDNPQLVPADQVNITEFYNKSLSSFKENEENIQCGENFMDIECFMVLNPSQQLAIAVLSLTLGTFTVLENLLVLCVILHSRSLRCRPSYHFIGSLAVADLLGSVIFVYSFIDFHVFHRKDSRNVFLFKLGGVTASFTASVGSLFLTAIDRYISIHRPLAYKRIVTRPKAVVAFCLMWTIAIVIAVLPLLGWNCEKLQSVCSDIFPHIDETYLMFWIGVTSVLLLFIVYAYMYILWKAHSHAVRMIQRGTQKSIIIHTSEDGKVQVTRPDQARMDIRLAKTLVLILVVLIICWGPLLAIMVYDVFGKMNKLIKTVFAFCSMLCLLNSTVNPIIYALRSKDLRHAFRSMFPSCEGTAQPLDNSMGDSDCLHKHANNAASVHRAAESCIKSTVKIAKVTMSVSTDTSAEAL
Experimental: The inhibition of forskolin-stimulated cAMP accumulation assays was carried out using PerkinElmer’s Lance Ultra cAMP kit following the manufacturer’s protocol. In brief, CHO cells stably expressing human CB1R were harvested by incubation with Versene (ThermoFisher Scientific, Waltham, MA) for 10 min, washed once with Hank’s Balanced Salt Solution, and resuspended in stimulation buffer at ~200 cells/μL density. The ligands at eight different concentrations (0.001–10,000 nM) in stimulation buffer (5 μL) containing forskolin (2 μM final concentration) were added to a 384-well plate followed by the cell suspension (5 μL; ~1000 cells/well). The plate was incubated for 30 min at room temperature. Eu-cAMP tracer (5 μL) and Ulight-anti-cAMP (5 μL) working solutions were then added to each well, and the plate was incubated at room temperature for an additional 60 min. Results were measured on a Perkin-Elmer EnVision plate reader. The EC50 values were determined by nonlinear regression analysis using Prism software (GraphPad Software, Inc., San Diego, CA) and are expressed as the mean of three experiments, each performed in triplicate.

hCB1 [2] = molecular target: T3, hCB1; experiment: bioSens-All ebBRET effector biosensor signaling profiling, HEK293; assay type: cell-based; parameters: host or cells: HEK293 (HEK293SL clone), transient
Experimental: ebBRET-based effector membrane translocation biosensor assays were conducted at Domain Therapeutics NA Inc. (Montreal, QC, Canada) as previously described. […] HEK293 cells were maintained in Dulbecco’s Modified Eagle Medium (DMEM) (Wisent) supplemented with 1% penicillin- streptomycin (Wisent) and 10% (or 2 % for transfection) fetal bovine serum (Wisent) at 37°C with 5% CO2. All biosensor-coding plasmids and related information are the property of Domain Therapeutics NA Inc. The total amount of transfected DNA was adjusted and kept constant at 1 μg per mL of cell culture to be transfected using salmon sperm DNA (Invitrogen) as ‘carrier’ DNA, PEI (polyethylenimine 25 kDa linear, PolyScience) and DNA (3:1 ml PEI:mg DNA ratio) were first diluted separately in 150 mM NaCl then mixed and incubated for at least 20 minutes at room temperature to allow for the formation of DNA/PEI complexes. During the incubation, HEK293 cells were detached, counted, and re-suspended in maintenance medium to a 350,000 cells per mL density. At the end of the incubation period, the DNA/PEI mixture was added to the cells. Cells were finally distributed in 96-well plates (White Opaque 96-well /Microplates, Greiner) at a density of 35,000 cells per well. Forty-eight hours post-transfection, medium was aspirated and replaced with 100 μl of Hank’s Balanced Salt Solution buffer (HBSS) (Wisent) per well using 450-Select TS Biotek plate washer. After 60 min incubation in this medium, 10 μL of 10 μM e-Coelenterazine Prolume Purple (Methoxy e-CTZ) (Nanolight) was added to each well for a final concentration of 1 μM immediately followed by addition of increasing concentrations of the test compounds to each well using the HP D300 digital dispenser (Tecan). All compounds were assayed at 22 concentrations with each biosensor after a 10-minute room temperature incubation period. […] All BRET ratios were standardized using the universal BRET (uBRET) equation: uBRET=BRETratio-A/B-A×10,000 where A is the BRET ratio obtained from transfection of negative control and B is the BRET ratio obtained from transfection of positive control. […] The data were analyzed using the four-parameter logistic non-linear regression model in GraphPad Prism 9.1 and data were presented as means ± CIs of 1–4 independent experiments.
The SEM was calculated for the logEmax/EC50 ratios using the following equation: SEM=σ/n where σ is the standard deviation, and n is the number of experiments.

hCB1 [3] = molecular target: T3, hCB1; experiment: Cerep HTRF cAMP inhibition assay, hCB1 CHO-K1 cells; assay type: cell-based
Experimental: The hCB1 CHO-K1 cells are suspended in HBSS buffer (Invitrogen) complemented with 20 mM HEPES (pH 7.4), then distributed in microplates at a density of 5.103 cells/well in the presence of either of the following: HBSS (basal control), the reference agonist at 30 nM (stimulated control) or the test compounds. […] Following 30 min incubation at 37°C, the cells are lysed, and the fluorescence acceptor (D2-labeled cAMP) and fluorescence donor (anti-cAMP antibody labeled with europium cryptate) are added. […] Each measurement was done in triplicate.

hCB1 [4] = molecular target: T3, hCB1; experiment: DiscoverX PathHunter β-arrestin-2 recruitment assay; assay type: cell-based; conditions: hCB1 DiscoverX ß-arrestin recruitment EC50 [95% CI]
Experimental: PathHunter cell lines (CHO-K1 lineage expressing hCB1) were expanded from freezer stocks according to standard procedures. Cells were seeded in a total volume of 20 μL into white walled, 384-well microplates and incubated at 37°C for the appropriate time prior to testing. For agonist determination, cells were incubated with sample to induce response. Intermediate dilution of sample stocks was performed to generate 5X sample in assay buffer. 5 μL of 5X sample was added to cells and incubated at 37°C or room temperature for 90 to 180 minutes. Vehicle concentration was 1%. […] Microplates were read following signal generation with a PerkinElmer EnvisionTM instrument for chemiluminescent signal detection. Compound activity was analyzed using CBIS data analysis suite (ChemInnovation, CA).
The data were analyzed in GraphPad Prism 9.1 using “dose–response-stimulation log(agonist) versus response (four parameters)” and data were presented as EC50 or pEC50 ± CIs of one independent experiment in duplicate.

hCB2 [5] = molecular target: T4, hCB2 (Homo sapiens, UniProt P34972); experiment: Cerep cAMP assay; assay type: cell-based
T4 sequence (P34972 whole entry): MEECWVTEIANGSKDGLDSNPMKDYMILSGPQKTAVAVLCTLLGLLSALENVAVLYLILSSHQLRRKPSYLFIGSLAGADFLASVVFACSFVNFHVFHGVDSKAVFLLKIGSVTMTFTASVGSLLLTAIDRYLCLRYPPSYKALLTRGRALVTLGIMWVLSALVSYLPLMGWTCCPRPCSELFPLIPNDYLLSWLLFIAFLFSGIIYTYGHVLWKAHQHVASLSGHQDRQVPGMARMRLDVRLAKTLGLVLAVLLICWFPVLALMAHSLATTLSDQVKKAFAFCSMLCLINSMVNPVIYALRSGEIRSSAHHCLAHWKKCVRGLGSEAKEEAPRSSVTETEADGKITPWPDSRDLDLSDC

hCB1 [6] = molecular target: T3, hCB1; experiment: Tango β-arrestin-2 recruitment assay, HTLA cells; assay type: cell-based; parameters: expressed in transfected cells
Experimental: (§1) The Tango β-arrestin-2 recruitment assays were performed as described. In brief, HTLA cells were transiently transfected with human CB1R or CB2R Tango DNA construct overnight in DMEM supplemented with 10 % FBS, 100 μg ml−1 streptomycin and 100 U ml−1 penicillin. The transfected cells were then plated into poly-L-lysine-coated 384-well white clear-bottom cell culture plates in DMEM containing 1% dialysed FBS at a density of 10,000–15,000 cells per well. After incubation for 6 h, the plates were added with drug solutions prepared in DMEM containing 1% dialysed FBS for overnight incubation. On the day of assay, medium and drug solutions were removed and 20 μl per well of BrightGlo reagent (Promega) was added. The plates were further incubated for 20 min at room temperature and counted using the Wallac TriLux Microbeta counter (PerkinElmer). The results were analysed using GraphPad Prism 9.1. Each experiment was performed in triplicate and functional […] values were determined from the mean of three independent experiments.

hCB2 [7] = molecular target: T4, hCB2; experiment: Tango β-arrestin-2 recruitment assay, HTLA cells; assay type: cell-based; parameters: expressed in transfected cells; host or cells: HTLA (transient); conditions: for Emax: HTLA, read-out: hCB2 Tango ß-arrestin recruitment Emax [95% CI]
Experimental: as §1

hCB2 [8] = molecular target: T4, hCB2; experiment: TRUPATH BRET2 GoA dissociation assay, HEK293T; assay type: cell-based; parameters: expressed in transfected cells; host or cells: HEK293T (transient); conditions: HEK-293T, read-out: hCB2 BRET2 + GoA Emax [95% CI]
Experimental: […]. GoA dissociation BRET2 assays were performed as previously described with minor modifications. In brief, HEK293T cells were co-transfected overnight with human CB2 receptor, GαoA-Rluc, Gβ3, and Gγ9-GFP2 constructs. After 18–24 hours, the transfected cells were seeded into poly-L-lysine-coated 384-well white clear-bottom cell culture plates at a density of 15,000–20,000 cells and incubated with DMEM containing 1% dialyzed FBS, 100 U mL−1 of penicillin and 100 μg ml−1 of streptomycin for another 24 hours. The next day, the medium was aspirated and washed once with 20 μL of assay buffer (1× HBSS, 20 mM HEPES, 0.1% BSA, pH 7.4). Then, 20 μL of drug buffer containing coelenterazine 400a (Nanolight Technology) at 5 μM final concentration was added to each well and incubated for 5 minutes, followed by the addition of 10 μL of 3X designated drug buffer for 5 minutes. Then, 10 μL of 4X final concentrations of ligands were added for 5 minutes. […] BRET ratio was computed as the ratio of the GFP2 emission to RLuc8 emission. […] Each experiment was performed in triplicate and functional IC50 values were determined from the mean of four independent experiments.

[9] = HEK293, read-out: hCB1 Gi1 Emax [95% CI]
[10] = HEK293, read-out: hCB1 GoB Emax [95% CI]
[11] = HEK293, read-out: hCB1 Gz Emax [95% CI]

T1 sequence (P21554 whole entry C98A/C107A/C139A/C149A/C238A/R336C/C355A/C382A/C386A/C415A/C431A/C449A): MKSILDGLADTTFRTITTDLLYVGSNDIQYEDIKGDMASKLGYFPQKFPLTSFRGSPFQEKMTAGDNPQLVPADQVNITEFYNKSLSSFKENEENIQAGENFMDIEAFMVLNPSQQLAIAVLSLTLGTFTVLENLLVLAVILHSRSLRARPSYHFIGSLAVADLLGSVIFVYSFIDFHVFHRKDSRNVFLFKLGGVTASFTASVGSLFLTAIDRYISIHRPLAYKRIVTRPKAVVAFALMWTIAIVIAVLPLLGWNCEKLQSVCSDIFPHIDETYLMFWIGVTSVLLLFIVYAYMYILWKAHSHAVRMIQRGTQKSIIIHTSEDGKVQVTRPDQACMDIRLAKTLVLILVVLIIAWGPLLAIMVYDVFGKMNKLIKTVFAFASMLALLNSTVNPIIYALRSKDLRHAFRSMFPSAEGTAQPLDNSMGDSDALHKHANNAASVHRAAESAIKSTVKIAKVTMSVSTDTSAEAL

Row | SMILES | Ki (CB1) | functional efficacy (decrease in forskolin stimulated cAMP) (hCB1 [1]) | Emax (hCB1 [2]; [9]) | Emax (hCB1 [2]; [10]) | EC50 (hCB1 [2]; hCB1 Gi1 EC50 [95% CI]) | EC50 (hCB1 [2]; hCB1 Gi1 pEC50 [95% CI]) | EC50 (hCB1 [2]; hCB1 GoB EC50 [95% CI]) | Emax (CB1) | EC50 (hCB1 [6]) | EC50 (hCB2 [7]) | Emax (hCB2 [7]) | Emax (hCB1 [2]; [11]) | EC50 (hCB1 [2]; hCB1 GoB pEC50 [95% CI]) | EC50 (hCB1 [2]; hCB1 Gz EC50 [95% CI]) | other results
1 | COC(=O)[C@@H](NC(=O)c1nn(Cc2ccc(F)cc2)c2ccccc12)C(C)(C)C [MDMB-fubinaca, reference compound] | – | – | – | – | – | – | – | – | – | – | – | – | – | – | bimane spectrum λmax (CB1R): 465 nm
2 | Cn1nc(-c2nnc(C(C)(C)Oc3ccc(Cl)cc3)o2)c2ccccc2c1=O [‘0450] | 691 nM | modest agonism | 49% | 36% | 56300 nM | 50100 nM | 2510 nM | – | – | – | – | – | – | – | –
3 | Cc1cc(C(=O)N2CC3(CCC3)C2C2CCCO2)nn1-c1cccc(C(F)(F)F)c1 (stereo not shown) [‘3737] | 173 nM | – | – | – | – | – | – | 112% | > 10000 nM | 1500 nM | 9% | – | – | – | EC50 (hCB1 [3]): 326 nM; Emax (hCB1 [3]; CHO-K1, read-out: hCB1 Cerep cAMP Emax [95% CI]): 99%; EC50 (hCB1 [4]): > 10000 nM; EC50 (hCB2 [5]): 4.3 nM; Emax (hCB2 [5]; read-out: hCB2 Cerep cAMP Emax [95% CI]): 45%
4 | COC(=O)[C@@H]1[C@@H]2CCC[C@@H]2CN1C(=O)c1cc(C)n(-c2cccc(C(F)(F)F)c2)n1 [‘6439] | 251 nM | – | 95% | 100% | – | 63.1 nM | 60.9 nM | 106% | > 10000 nM | 338 nM | 14% | 162% | 63.1 nM | 339 nM | Emax (hCB2 [8]): 81%
5 | COC(=O)[C@@H]1[C@@H]2CCC[C@@H]2CN1C(=O)c1cc(C)n(-c2cccc(Cl)c2)n1 [‘10010] | 1200 nM | – | 74% | 71% | 814 nM | – | 801 nM | 101% | > 10000 nM | 556 nM | 18% | 144% | 794 nM | 1400 nM | % [3H]-CP-55,940 displacement (mean) from single point screen (CB1; screens at 10 μM (white cells), 1 μM (orange) or 300 nM (green), cell colours not visible): 33.86%
6 | COC(=O)C(NC(=O)c1cc(C)n(-c2cccc(F)c2)n1)c1cccs1 (stereo not shown) [‘51486] | 731 nM | modest agonism | 73% | 74% | – | – | 711 nM | – | – | – | – | 130% | 631 nM | 1120 nM | LE (CB1; ligand efficiency): 0.32; LLE (CB1; lipophilic ligand efficiency): 3.1; EC50 (hCB1 [2]; hCB1 Gi1 EC50 [95% CI], Gi1 sensor): 849 nM

Source: publication doi:10.1101/2023.02.27.530254, “Large library docking for cannabinoid-1 receptor agonists with reduced side effects” (bioRxiv, 2024)
